Measured values as given in patent publication US7951782B2, “Composition effective to prevent or treat adult disease” (Maruha Nichiro Seafoods, Inc, priority 2005, dated 2011).
Residues, ends and D or L forms follow the SMILES beside them. No end group written: not given here.

Biological target: T1, xanthine oxidase (XO) of cow's milk (Bos taurus, UniProt P80457)
T1 construct: xanthine oxidase (XO) of cow's milk (from Wako Pure Chemical); purchased Wako Pure Chemical; host or cells: cow's milk (natural source)
Assay: Uric acid synthetase inhibitory activity of peptides that are part of SEQ ID No. 1
Format: biochemical
Settings: 15 μM xanthine, 50 mM tris-HCl pH 7.4, 37° C., 10 minutes
Method: Each of the peptides synthesized was added to 1 ml of a 50 mM tris-HCl buffer (pH 7.4) containing 15 μM xanthine as an enzyme substrate to prepare a reaction system. To the reaction system was added 0.1 unit (containing 100 μl of 25 units/25 ml enzyme solution) of xanthine oxidase (XO) of cow's milk (from Wako Pure Chemical), followed by allowing the system to react at 37° C. for 10 minutes. The amount of uric acid produced from xanthine by the action of xanthine oxidase was evaluated in terms of changes in optical density (OD, at 292 nm), from which the enzyme activity was calculated from formula previously given.

T1 sequence (P80457 whole entry): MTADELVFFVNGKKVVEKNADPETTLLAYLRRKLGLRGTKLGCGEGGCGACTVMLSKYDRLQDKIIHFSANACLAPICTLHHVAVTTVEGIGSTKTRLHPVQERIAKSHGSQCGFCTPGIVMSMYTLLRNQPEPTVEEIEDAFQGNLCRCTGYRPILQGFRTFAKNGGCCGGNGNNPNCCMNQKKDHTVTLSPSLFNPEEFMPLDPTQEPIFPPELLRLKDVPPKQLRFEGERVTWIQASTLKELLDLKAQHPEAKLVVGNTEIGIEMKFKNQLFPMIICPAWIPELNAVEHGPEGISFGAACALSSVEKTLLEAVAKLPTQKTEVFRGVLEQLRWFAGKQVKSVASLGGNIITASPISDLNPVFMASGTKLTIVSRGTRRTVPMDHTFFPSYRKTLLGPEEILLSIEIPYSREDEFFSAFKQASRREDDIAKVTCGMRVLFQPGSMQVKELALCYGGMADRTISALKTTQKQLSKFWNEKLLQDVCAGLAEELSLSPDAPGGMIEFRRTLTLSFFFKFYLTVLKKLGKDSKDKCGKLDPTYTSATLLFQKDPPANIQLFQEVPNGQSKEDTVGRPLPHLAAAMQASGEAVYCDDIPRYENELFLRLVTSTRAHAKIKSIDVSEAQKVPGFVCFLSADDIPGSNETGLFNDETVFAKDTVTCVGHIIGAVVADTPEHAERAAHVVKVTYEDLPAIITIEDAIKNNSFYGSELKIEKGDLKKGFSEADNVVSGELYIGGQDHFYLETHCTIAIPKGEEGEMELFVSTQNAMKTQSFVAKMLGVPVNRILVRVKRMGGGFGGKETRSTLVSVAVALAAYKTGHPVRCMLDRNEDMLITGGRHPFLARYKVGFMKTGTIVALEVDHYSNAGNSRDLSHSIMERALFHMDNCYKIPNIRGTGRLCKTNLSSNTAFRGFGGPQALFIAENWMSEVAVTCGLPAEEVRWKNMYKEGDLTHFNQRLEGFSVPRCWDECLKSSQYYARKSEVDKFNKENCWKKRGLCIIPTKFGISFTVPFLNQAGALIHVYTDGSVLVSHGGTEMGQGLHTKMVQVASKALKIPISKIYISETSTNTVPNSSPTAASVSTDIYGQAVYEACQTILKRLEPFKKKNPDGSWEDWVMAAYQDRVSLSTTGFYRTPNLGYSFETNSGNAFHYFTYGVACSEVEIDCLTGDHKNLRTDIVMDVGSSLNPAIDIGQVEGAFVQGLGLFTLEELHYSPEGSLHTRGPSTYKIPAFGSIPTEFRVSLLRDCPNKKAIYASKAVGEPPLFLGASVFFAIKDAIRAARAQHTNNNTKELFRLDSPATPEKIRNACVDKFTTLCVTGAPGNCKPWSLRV

| Compound | xanthine oxidase activity in system containing the peptide |
| --- | --- |
| NC(=O)C[C@H](NC(=O)[C@@H](N)CC(=O)O)C(=O)O [DN] (H-Asp-Asn-OH; N-terminus and C-terminus assumed) | inhibited |
| CC(C)C[C@H](NC(=O)[C@@H](N)Cc1ccc(O)cc1)C(=O)N[C@@H](CC(=O)O)C(=O)N[C@@H](CC(N)=O)C(=O)O [YLDN, Tyr-Leu-Asp-Asn] (H-YLDN-OH; N-terminus and C-terminus assumed) | inhibited |

The next lines start with the values.

| xanthine oxidase activity in system containing the peptide | Compound |
| --- | --- |
| inhibited | CC(C)C[C@H](N)C(=O)N[C@@H](CC(=O)O)C(=O)N[C@@H](CC(N)=O)C(=O)N[C@@H](Cc1ccc(O)cc1)C(=O)O [LDNY, Leu-Asp-Asn-Tyr] (H-LDNY-OH; N-terminus and C-terminus assumed) |
| inhibited | CC(C)C[C@H](N)C(=O)N[C@@H](CC(=O)O)C(=O)O [LD] (H-Leu-Asp-OH; N-terminus and C-terminus assumed) |

Biological target: T2, xanthine oxidase (XO) from butter milk (Bos taurus, UniProt P80457)
T2 construct: xanthine oxidase (XO) from butter milk (from Wako Pure Chemical); purchased Wako Pure Chemical; host or cells: butter milk (natural source)
Assay: Uric acid synthetase inhibitory activity of polypeptides (YINY, YNL, GYL, INF)
Format: biochemical
Settings: 15 μM xanthine, pH 7.4, 37° C., 10 minutes
Method: A polypeptide having SEQ ID No. 2 (YINY), which is contained in the enzyme-digested reverse-phase column fraction of the basic fraction of a shark cartilage extract, was synthesized in the same manner as in Example 7 and added to 200 μl of a 50 mM tris-HCl buffer (pH 7.4) containing 15 μM xanthine as an enzyme substrate to prepare a reaction system. To the reaction system was added 0.1 unit (containing 1 μl of 10 units/100 μl enzyme solution) of xanthine oxidase (XO) from butter milk (from Wako Pure Chemical), followed by allowing the system to react at 37° C. for 10 minutes. The amount of uric acid produced from xanthine by the action of xanthine oxidase was evaluated in terms of changes in optical density (OD, at 292 nm), from which the enzyme activity was calculated from formula previously given.
Polypeptides YNL, GYL, and INF which are contained in the enzyme-digested reverse-phase column fraction of the basic fraction of a shark cartilage extract were synthesized in the same manner as in Example 7 and added to 200 μl of a 50 mM tris-HCl buffer (pH 7.4) containing 15 μM xanthine as an enzyme substrate to prepare a reaction system. […] The amount of uric acid produced from xanthine by the action of xanthine oxidase was evaluated in terms of changes in optical density (OD, at 292 nm), from which the enzyme activity was calculated from formula previously given. […]

T2 sequence (P80457 whole entry): as above

| Compound | xanthine oxidase activity in system containing the polypeptide |
| --- | --- |
| CC[C@H](C)[C@H](NC(=O)[C@@H](N)Cc1ccc(O)cc1)C(=O)N[C@@H](CC(N)=O)C(=O)N[C@@H](Cc1ccc(O)cc1)C(=O)O [YINY, Try-Ile-Asn-Tyr] (H-YINY-OH; N-terminus and C-terminus assumed) | inhibited |

System: not listed separately
Assay: Solubility of synthesized polypeptides
Settings: in 5% NH4OH with H2O
Method: Twenty-four polypeptides contained in the alcalase-digested, reverse phase column fraction of the basic fraction were synthesized in yields of 10 to 300 mg in the same manner as described in Example 7 and their characteristic values were determined.

| Solubility | Compound |
| --- | --- |
| 1 mg/ml in 5% NH4OH | CC[C@H](C)[C@H](N)C(=O)N[C@@H](CC(N)=O)C(=O)N[C@@H](Cc1ccc(O)cc1)C(=O)O [Ile-Asn-Tyr] (H-Ile-Asn-Tyr-OH; N-terminus and C-terminus assumed) |
| 1 mg/ml in 5% NH4OH | CC[C@H](C)[C@H](NC(=O)[C@@H](N)CO)C(=O)N[C@@H](Cc1ccc(O)cc1)C(=O)N[C@@H](CC(=O)O)C(=O)O [Ser-Ile-Tyr-Asp] (H-SIYD-OH; N-terminus and C-terminus assumed) |

| Compound | Solubility |
| --- | --- |
| CC[C@H](C)[C@H](NC(=O)[C@@H](N)Cc1ccc(O)cc1)C(=O)N[C@@H](CC(N)=O)C(=O)N[C@@H](Cc1ccc(O)cc1)C(=O)O [YINY, Try-Ile-Asn-Tyr] (H-YINY-OH; N-terminus and C-terminus assumed) | 1 mg/ml in 5% NH4OH |

Same assay, conditions: in 10% Acetonitrile in water

| Solubility | Compound |
| --- | --- |
| 1 mg/ml in 10% in | CC[C@H](C)[C@H](N)C(=O)N[C@@H](Cc1ccc(O)cc1)C(=O)N[C@@H](CC(C)C)C(=O)O [Ile-Tyr-Leu] (H-Ile-Tyr-Leu-OH; N-terminus and C-terminus assumed) |
| 1 mg/ml in 10% | CC(C)C[C@H](NC(=O)[C@H](Cc1ccccc1)NC(=O)CN)C(=O)O [Gly-Phe-Leu] (H-Gly-Phe-Leu-OH; N-terminus and C-terminus assumed) |

| Compound | Solubility |
| --- | --- |
| YLDNY [YLDNY, Tyr-Leu-Asp-Asn-Tyr] | 1 mg/ml in 10% |

Same assay, conditions: in water (H2O)

| Compound | Solubility |
| --- | --- |
| CC[C@H](C)[C@H](N)C(=O)N[C@@H](CC(N)=O)C(=O)N[C@@H](Cc1ccccc1)C(=O)O [INF, Ile-Asn-Phe] (H-Ile-Asn-Phe-OH; N-terminus and C-terminus assumed) | 1 mg/ml in H2O |
| CC(C)C[C@H](NC(=O)[C@@H](N)Cc1ccc(O)cc1)C(=O)N[C@@H](CC(=O)O)C(=O)N[C@@H](CC(N)=O)C(=O)O [YLDN, Tyr-Leu-Asp-Asn] (H-YLDN-OH; N-terminus and C-terminus assumed) | 1 mg/ml in water |
| CC(C)C[C@H](NC(=O)[C@H](CC(N)=O)NC(=O)[C@@H](N)Cc1ccc(O)cc1)C(=O)O [YNL, Tyr-Asn-Leu] (H-Tyr-Asn-Leu-OH; N-terminus and C-terminus assumed) | 1 mg/ml in H2O |
| CC(C)C[C@H](NC(=O)[C@H](Cc1ccc(O)cc1)NC(=O)CN)C(=O)O [GYL, Gly-Tyr-Leu] (H-Gly-Tyr-Leu-OH; N-terminus and C-terminus assumed) | 1 mg/ml in H2O |
| N=C(N)NCCC[C@H](N)C(=O)N[C@@H](Cc1ccc(O)cc1)C(=O)N[C@@H](Cc1ccccc1)C(=O)O [Arg-Tyr-Phe] (H-Arg-Tyr-Phe-OH; N-terminus and C-terminus assumed) | 1 mg/ml in H2O |
| DFWRY [Asp-Phe-Trp-Arg-Tyr] | 1 mg/ml in water |

Next, values leading:

| Solubility | Compound |
| --- | --- |
| 1 mg/ml in H2O | CC(C)[C@H](N)C(=O)N[C@@H](Cc1ccc(O)cc1)C(=O)N[C@@H](CCC(N)=O)C(=O)O [Val-Tyr-Gln] (H-Val-Tyr-Gln-OH; N-terminus and C-terminus assumed) |
| 1 mg/ml in water | CC(C)C[C@H](N)C(=O)N[C@@H](CC(=O)O)C(=O)N[C@@H](CC(N)=O)C(=O)N[C@@H](Cc1ccc(O)cc1)C(=O)O [LDNY, Leu-Asp-Asn-Tyr] (H-LDNY-OH; N-terminus and C-terminus assumed) |
| 1 mg/ml in water | CC(C)C[C@H](NC(=O)[C@@H](N)CO)C(=O)O [Ser-Leu] (H-Ser-Leu-OH; N-terminus and C-terminus assumed) |
| 1 mg/ml in water | SPPYWPY [SPPYWPY, Ser-Pro-Pro-Tyr-Trp-Pro-Tyr] |
| 1 mg/ml in H2O | CC(C)C[C@H](N)C(=O)N[C@@H](Cc1ccccc1)C(=O)O [Leu-Phe] (H-Leu-Phe-OH; N-terminus and C-terminus assumed) |
| 1 mg/ml in H2O | N[C@@H](Cc1ccccc1)C(=O)N[C@@H](Cc1ccc(O)cc1)C(=O)O [Phe-Tyr] (H-Phe-Tyr-OH; N-terminus and C-terminus assumed) |
| 1 mg/ml in water | CC(C)[C@H](N)C(=O)N[C@@H](CCC(=O)O)C(=O)N[C@@H](Cc1ccc(O)cc1)C(=O)N[C@@H](Cc1ccccc1)C(=O)O [Val-Gln-Tyr-Phe] |
| 1 mg/ml in H2O | NC(=O)CC[C@H](NC(=O)[C@H](Cc1c[nH]c2ccccc12)NC(=O)[C@H](CC(N)=O)NC(=O)[C@@H](N)CO)C(=O)O [Ser-Asn-Trp-Gln] (H-SNWQ-OH; N-terminus and C-terminus assumed) |
